PMC12888861, “Antibacterial activity of enmetazobactam against Acinetobacter spp.: a molecular dissection of mechanism of action and resistance determinants” (Antimicrobial Agents and Chemotherapy, 2025)

Test system: carbapenem-resistant A. baumannii (CRAB) isolates (n = 67)
Experiment: MIC, broth microdilution (EUCAST), carbapenem-resistant A. baumannii isolates
Assay type: cell-based, Acinetobacter baumannii
Settings: for MIC: Acinetobacter baumannii
Source text: The bacterial strains used in this study comprised 208 clinical isolates from the Spanish National Acinetobacter spp. 2020 Multicenter Collection, which was previously characterized in detail by our research group, including whole-genome sequencing, phylogenetics studies, clonal dynamics, and resistance mechanisms ([2], [29]). Additionally, a collection of A. baumannii ATCC 17978 transformants coding the blaOXA-23, blaOXA-24/40, blaOXA-51, blaOXA-58, blaOXA-143, and blaOXA-201 genes, previously constructed and described by our group ([30]), was used to determine the activity of enmetazobactam against strains carrying the main CHDLs of A. baumannii.
The antimicrobial susceptibility of the 208 Acinetobacter spp. isolates was assessed using the broth microdilution method, as described in the European Committee on Antimicrobial Susceptibility Testing (EUCAST) v.15 guidelines (http://www.eucast.org/clinical_breakpoints). […] MICs for enmetazobactam alone were assessed as well. […] Subsequently, MIC testing was also conducted with a collection of A. baumannii ATCC 17978 transformants expressing clinically relevant OXA-like carbapenemase genes.
The A. baumannii ATCC 19606 strain was used as the reference strain in all susceptibility experiments, in duplicate assays. Antibiotics were purchased from Sigma-Aldrich, except enmetazobactam and durlobactam, which were obtained from Advanz Pharma and MedChemExpress, respectively.

[1] = CHDLs-producing A. baumannii isolates (n = 67), durlobactam series, DUR fixed 4 mg/L in combinations

C[n+]1ccn(C[C@@]2(C)[C@H](C(=O)[O-])N3C(=O)C[C@H]3S2(=O)=O)n1 [enmetazobactam]
MIC (isolate Ab83, ST 25, ADC-5, OXA-64, OXA-23, ETZ fixed 8 mg/L in combinations): 64 µg/mL
MIC (isolate Ab109, ST 1, ADC-75, OXA-69, OXA-23, DUR fixed at 4 mg/L in combinations): 32 µg/mL
MIC (isolate Ab109, ST 1, ADC-75, OXA-69, OXA-23, ETZ fixed 8 mg/L in combinations): 32 µg/mL
MIC (isolate Ab133, ST 2, ADC-30, OXA-66, OXA-58, TEM-12, DUR fixed at 4 mg/L in combinations): 8 µg/mL
MIC (isolate Ab133, ST 2, ADC-30, OXA-66, OXA-58, TEM-12, ETZ fixed 8 mg/L in combinations): 8 µg/mL
MIC (isolate Ab134, ST 2, ADC-30, OXA-66, OXA-58, TEM-12, DUR fixed at 4 mg/L in combinations): 8 µg/mL
MIC (isolate Ab134, ST 2, ADC-30, OXA-66, OXA-58, TEM-12, ETZ fixed 8 mg/L in combinations): 8 µg/mL
MIC (isolate Ab137, ST 85, ADC-2, OXA-94, OXA-23, DUR fixed at 4 mg/L in combinations): 64 µg/mL
MIC (isolate Ab137, ST 85, ADC-2, OXA-94, OXA-23, ETZ fixed 8 mg/L in combinations): 64 µg/mL
MIC (isolate Ab138, ST 745, ADC-30, OXA-66, OXA-58, DUR fixed at 4 mg/L in combinations): 64 µg/mL
MIC (isolate Ab138, ST 745, ADC-30, OXA-66, OXA-58, ETZ fixed 8 mg/L in combinations): 64 µg/mL
MIC (isolate Ab140, ST 85, ADC-2, OXA-94, OXA-23, DUR fixed at 4 mg/L in combinations): 64 µg/mL
MIC (isolate Ab140, ST 85, ADC-2, OXA-94, OXA-23, ETZ fixed 8 mg/L in combinations): 64 µg/mL
MIC (isolate Ab141, ST 745, ADC-30, OXA-66, OXA-58, DUR fixed at 4 mg/L in combinations): 8 µg/mL
MIC (isolate Ab141, ST 745, ADC-30, OXA-66, OXA-58, ETZ fixed 8 mg/L in combinations): 8 µg/mL
MIC (isolate Ab144, ST 745, ADC-30, OXA-66, OXA-58, DUR fixed at 4 mg/L in combinations): 32 µg/mL
MIC (isolate Ab144, ST 745, ADC-30, OXA-66, OXA-58, ETZ fixed 8 mg/L in combinations): 32 µg/mL
MIC (isolate Ab169, ST 2, ADC-30, OXA-66, OXA-23, DUR fixed at 4 mg/L in combinations): 32 µg/mL
MIC (isolate Ab169, ST 2, ADC-30, OXA-66, OXA-23, ETZ fixed 8 mg/L in combinations): 64 µg/mL
MIC (isolate Ab171, ST 2, ADC-30, OXA-66, OXA-23, DUR fixed at 4 mg/L in combinations): 32 µg/mL
MIC (isolate Ab171, ST 2, ADC-30, OXA-66, OXA-23, ETZ fixed 8 mg/L in combinations): 64 µg/mL
MIC (isolate Ab173, ST 2, ISAba1-ADC-30, OXA-66, OXA-23, DUR fixed at 4 mg/L in combinations): 64 µg/mL
MIC (isolate Ab173, ST 2, ISAba1-ADC-30, OXA-66, OXA-23, ETZ fixed 8 mg/L in combinations): 64 µg/mL
MIC (isolate Ab174, ST 2, ADC-30, OXA-66, OXA-23, DUR fixed at 4 mg/L in combinations): 64 µg/mL
MIC (isolate Ab174, ST 2, ADC-30, OXA-66, OXA-23, ETZ fixed 8 mg/L in combinations): 64 µg/mL
MIC (isolate Ab179, ST 2, ADC-30, OXA-66, OXA-23, DUR fixed at 4 mg/L in combinations): 64 µg/mL
MIC (isolate Ab179, ST 2, ADC-30, OXA-66, OXA-23, ETZ fixed 8 mg/L in combinations): 64 µg/mL
MIC (isolate Ab180, ST 2, ADC-30, OXA-66, OXA-24/40, DUR fixed at 4 mg/L in combinations): 32 µg/mL
MIC (isolate Ab180, ST 2, ADC-30, OXA-66, OXA-24/40, ETZ fixed 8 mg/L in combinations): 32 µg/mL
MIC (isolate Ab181, ST 2, ADC-30, OXA-66, OXA-23, DUR fixed at 4 mg/L in combinations): 32 µg/mL
MIC (isolate Ab181, ST 2, ADC-30, OXA-66, OXA-23, ETZ fixed 8 mg/L in combinations): 32 µg/mL
MIC (isolate Ab182, ST 2, ADC-30, OXA-66, OXA-23, DUR fixed at 4 mg/L in combinations): 16 µg/mL
MIC (isolate Ab182, ST 2, ADC-30, OXA-66, OXA-23, ETZ fixed 8 mg/L in combinations): 16 µg/mL
MIC (isolate Ab183, ST 2, ADC-30, OXA-66, OXA-23, DUR fixed at 4 mg/L in combinations): 32 µg/mL
MIC (isolate Ab183, ST 2, ADC-30, OXA-66, OXA-23, ETZ fixed 8 mg/L in combinations): 32 µg/mL
MIC (isolate Ab184, ST 2, ADC-30, OXA-66, OXA-23, DUR fixed at 4 mg/L in combinations): 32 µg/mL
MIC (isolate Ab184, ST 2, ADC-30, OXA-66, OXA-23, ETZ fixed 8 mg/L in combinations): 32 µg/mL
MIC (isolate Ab186, ST 2, ADC-30, OXA-66, OXA-23, DUR fixed at 4 mg/L in combinations): 32 µg/mL
MIC (isolate Ab186, ST 2, ADC-30, OXA-66, OXA-23, ETZ fixed 8 mg/L in combinations): 32 µg/mL
MIC (isolate Ab191, ST 2, ADC-30, OXA-66, OXA-23, DUR fixed at 4 mg/L in combinations): 64 µg/mL
MIC (isolate Ab191, ST 2, ADC-30, OXA-66, OXA-23, ETZ fixed 8 mg/L in combinations): 64 µg/mL
MIC (isolate Ab192, ST 2, ADC-30, OXA-66, OXA-23, DUR fixed at 4 mg/L in combinations): 32 µg/mL
MIC (isolate Ab192, ST 2, ADC-30, OXA-66, OXA-23, ETZ fixed 8 mg/L in combinations): 64 µg/mL
MIC (isolate Ab194, ST 2, ADC-30, OXA-66, OXA-23, DUR fixed at 4 mg/L in combinations): 64 µg/mL
MIC (isolate Ab194, ST 2, ADC-30, OXA-66, OXA-23, ETZ fixed 8 mg/L in combinations): 64 µg/mL
MIC (isolate Ab199, ST 2, ADC-30, OXA-66, OXA-23, DUR fixed at 4 mg/L in combinations): 32 µg/mL
MIC (isolate Ab199, ST 2, ADC-30, OXA-66, OXA-23, ETZ fixed 8 mg/L in combinations): 32 µg/mL
MIC (isolate Ab201, ST 2, ADC-30, OXA-66, OXA-23, DUR fixed at 4 mg/L in combinations): 64 µg/mL
MIC (isolate Ab201, ST 2, ADC-30, OXA-66, OXA-23, ETZ fixed 8 mg/L in combinations): 64 µg/mL
MIC (isolate Ab204, ST 2, ADC-30, OXA-66, OXA-23, DUR fixed at 4 mg/L in combinations): 32 µg/mL
MIC (isolate Ab204, ST 2, ADC-30, OXA-66, OXA-23, ETZ fixed 8 mg/L in combinations): 32 µg/mL
MIC50 [1]: 64 µg/mL
MIC90 [1]: 64 µg/mL
MIC distribution 0.12 (cumulative % of CHDLs-producing A. baumannii isolates (n = 67) at MIC 0.12 mg/L, DUR fixed 4 mg/L in combinations): 0.0%
MIC distribution 0.25 (cumulative % of CHDLs-producing A. baumannii isolates (n = 67) at MIC 0.25 mg/L, DUR fixed 4 mg/L in combinations): 0.0%
MIC distribution 0.5 (cumulative % of CHDLs-producing A. baumannii isolates (n = 67) at MIC 0.5 mg/L, DUR fixed 4 mg/L in combinations): 0.0%
MIC distribution 1 (cumulative % of CHDLs-producing A. baumannii isolates (n = 67) at MIC 1 mg/L, DUR fixed 4 mg/L in combinations): 0.0%
MIC distribution 2 (cumulative % of CHDLs-producing A. baumannii isolates (n = 67) at MIC 2 mg/L, DUR fixed 4 mg/L in combinations): 0.0%
MIC distribution 4 (cumulative % of CHDLs-producing A. baumannii isolates (n = 67) at MIC 4 mg/L, DUR fixed 4 mg/L in combinations): 10.4%
MIC distribution 8 (cumulative % of CHDLs-producing A. baumannii isolates (n = 67) at MIC 8 mg/L, DUR fixed 4 mg/L in combinations): 22.4%
MIC distribution 16 (cumulative % of CHDLs-producing A. baumannii isolates (n = 67) at MIC 16 mg/L, DUR fixed 4 mg/L in combinations): 25.4%
MIC distribution 32 (cumulative % of CHDLs-producing A. baumannii isolates (n = 67) at MIC 32 mg/L, DUR fixed 4 mg/L in combinations): 46.3%
MIC distribution ≤0.06 (cumulative % of CHDLs-producing A. baumannii isolates (n = 67) at MIC ≤0.06 mg/L, DUR fixed 4 mg/L in combinations): 0.0%
MIC distribution ≥64 (cumulative % of CHDLs-producing A. baumannii isolates (n = 67) at MIC ≥64 mg/L, DUR fixed 4 mg/L in combinations): 100%
MIC distribution 0.12 (cumulative share of CRAB isolates (n = 67) at MIC 0.12 mg/L, ETZ fixed 8 mg/L in combinations): 0
MIC distribution 0.25 (cumulative share of CRAB isolates (n = 67) at MIC 0.25 mg/L, ETZ fixed 8 mg/L in combinations): 0
MIC distribution 0.5 (cumulative share of CRAB isolates (n = 67) at MIC 0.5 mg/L, ETZ fixed 8 mg/L in combinations): 0
MIC distribution 1 (cumulative share of CRAB isolates (n = 67) at MIC 1 mg/L, ETZ fixed 8 mg/L in combinations): 0
MIC distribution 2 (cumulative share of CRAB isolates (n = 67) at MIC 2 mg/L, ETZ fixed 8 mg/L in combinations): 0
MIC distribution 4 (cumulative share of CRAB isolates (n = 67) at MIC 4 mg/L, ETZ fixed 8 mg/L in combinations): 10.4
MIC distribution 8 (cumulative share of CRAB isolates (n = 67) at MIC 8 mg/L, ETZ fixed 8 mg/L in combinations): 19.4
MIC distribution 16 (cumulative share of CRAB isolates (n = 67) at MIC 16 mg/L, ETZ fixed 8 mg/L in combinations): 25.4
MIC distribution 32 (cumulative share of CRAB isolates (n = 67) at MIC 32 mg/L, ETZ fixed 8 mg/L in combinations): 41.8
MIC distribution 64 (cumulative share of CRAB isolates (n = 67) at MIC 64 mg/L, ETZ fixed 8 mg/L in combinations): 100
MIC distribution ≤0.06 (cumulative share of CRAB isolates (n = 67) at MIC ≤0.06 mg/L, ETZ fixed 8 mg/L in combinations): 0
